This note sets out measurements from ChEMBL document CHEMBL1146455, “New geranyl stilbenes from Dalea purpurea with in vitro opioid receptor affinity” (J Nat Prod, 2004).

Bounds are passed on as bounds.

This experiment is described as follows: Displacement of [3H]naloxone from opioid receptor in Sprague-Dawley rat striatal membrane by scintillation spectrophotometry. Also noted: species or system Striatum. Background: In a radioligand displacement assay an active substance lowers the binding of a labelled ligand.
Compound `CC(C)=CCC/C(C)=C/Cc1c(O)cc(O)cc1/C=C/c1ccc(O)c(O)c1CC=C(C)C` [PAWHUSKIN A] showed a Ki of 0.29 µM.

As to `CC(C)=CCc1cc(O)c(O)c(CC=C(C)C)c1[C@H]1Oc2c(CC=C(C)C)c(O)cc(O)c2C(=O)[C@@H]1O` [PETALOSTEMUMOL], the Ki was over 100 µM.

The compound `CC(C)=CCC/C(C)=C/Cc1c(O)cc(/C=C/c2ccc(O)c(O)c2)cc1O` [PAWHUSKIN C] returned a Ki of 4.2 µM.

`CC(C)=CCCC1(C)C=Cc2c(O)cc(/C=C/c3ccc(O)c(O)c3)cc2O1` (centres undefined) [PAWHUSKIN B] yielded a Ki of 11.4 µM.

For orientation: Ki means the dissociation constant of the complex between target and ligand, obtained from inhibition or displacement. A higher Ki goes with weaker binding.
